# How the values were obtained:
# [1] = molecular target: T1, human CA I (Homo sapiens, UniProt P00915); assay: CA I inhibition, CO2 hydration, Maren's micromethod (E-I technique); type: biochemical; settings: 0C, veronal buffer, calculated as for the monomer for complexes
# T1 construct: purchased Sigma Chemical Co
# Description: (§1) Introduction Sulfonamide inhibitors of the zinc enzyme carbonic anhydrase (CA, EC 4.2.1.1) are widely used pharmacological agents in the treatment of a variety of disorders. […] 3,11 As we are also interested in exploring the coordination chemistry of sulfonamide CA inhibitors, in addition to their pharmacological applications, 1,4,11 a study is reported here on the preparation and characterization of metal complexes containing 4 and divalent metal ions such as Co(II), Ni(II), Cu(II), Zn(II), and Cd(II). In fact 4 is the first disulfonamide for which such a study was done. Here we report the data on these new derivatives, as well as their inhibition properties against two isozymes, CA I and CA II. Mention should be made that CA I inhibition data for the parent ligand, 1,3,4-thiadiazole-2,5- disulfonamide are published here for the first time. Materials and Methods Melting points were recorded on a heating plate microscope and are not corrected. FTIR spectra were obtained on thin films of pure compound, with a Perkin Elmer 1600 instrument, in the range 200 4000 cm"1. Electronic spectra were obtained by the diffuse reflectance technique in MgO as reference, with a Perkin Elmer Lambda 17 apparatus. Conductimetric measurements were done in DMF solutions, at 25C (concentrations of 1 mM of complex) with a Fisher conductimeter. 1n- and 13C-NMR data were obtained in DMSO-d as solvent with a Varian Gemmini 300 spectrometer. Chemical shifts are expressed as values relative to tetramethylsilane as internal standard. […] Thermogravimetric measurements were done in air, at a heating rate of 10C/min., with a Perkin Elmer 3600 thermobalance. Sulfonamide 4 used in the syntheses was prepared as described earlier by us.11 Metal salts, organic reagents used for preparing the ligand 4 and solvents were from Aldrich and were used without additional purification. Bovine CA II and human CA I was from Sigma Chemical Co. Inhibitors were assayed by […] micromethod 12, in the conditions of the E-I (enzyme-inhibitor) technique, at 0C in veronal buffer. IC0 values represent the molarity of inhibitor producing a 50% decrease of CA specific activity for the CO2 hydration reaction. […] The precipitated complexes were filtered and air dried. […] According to our method 6a the coordination compounds of sulfonamides were prepared starting from the sodium salt of the ligand, in aqueous milieu, whereas according to Borras' group they were obtained in the presence of ammonia (or other amines, such as pyridine, ethylenediamine, imidazole, etc), in alcohol as solvent.14 In such cases, the amines are also coordinated to the metal ions, in addition to the sulfonamide ligands. In the present study, we prepared and characterized both types ofderivatives, working with the sodium salt of4, but also with the ligand in the presence of ammonia, in both cases in a 1:1 molar ratio ligand:metal salt. […] Table I: Complexes 5-14 prepared and their elemental analysis data (S stands for the doubly deprotonated species of sulfonamide 4). […] Table II: Spectroscopic, magnetic and conductimetric data for complexes 5-10 as compared to ligands 4. Comp. IR.
# [2] = molecular target: T2, Bovine CA II (Bos taurus, UniProt P00921); assay: CA II inhibition, CO2 hydration, Maren's micromethod (E-I technique); type: biochemical; settings: 0C, veronal buffer, calculated as for the monomer for complexes
# T2 construct: purchased Sigma Chemical Co
# T2 sequence (P00921 whole entry): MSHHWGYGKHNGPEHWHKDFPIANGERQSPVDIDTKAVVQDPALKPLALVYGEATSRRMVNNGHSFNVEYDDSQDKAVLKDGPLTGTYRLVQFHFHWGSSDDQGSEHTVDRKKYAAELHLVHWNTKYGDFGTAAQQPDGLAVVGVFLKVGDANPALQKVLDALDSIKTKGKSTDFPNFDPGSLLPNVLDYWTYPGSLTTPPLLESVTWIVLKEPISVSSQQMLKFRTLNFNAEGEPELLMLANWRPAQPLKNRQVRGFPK
# Description: as §1
# T1 sequence (P00915 whole entry): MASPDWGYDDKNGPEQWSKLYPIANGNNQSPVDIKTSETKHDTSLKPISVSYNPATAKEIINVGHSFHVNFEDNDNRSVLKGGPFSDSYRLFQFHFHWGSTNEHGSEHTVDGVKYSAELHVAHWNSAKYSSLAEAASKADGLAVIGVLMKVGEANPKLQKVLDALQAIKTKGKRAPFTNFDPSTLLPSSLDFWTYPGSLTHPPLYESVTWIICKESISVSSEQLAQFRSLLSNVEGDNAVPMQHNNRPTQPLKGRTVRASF
Substance,IC50 [1],IC50 [2]
[CuS(NH3)2] [Compound 12],185 nM,27 nM
"[NiS(NH3)2], [Compound 11]",440 nM,41 nM
[CoS(NH3)2]n [Compound 10],360 nM,42 nM
[CdS(NH3)2]o [Compound 14],185 nM,19 nM
[ZnS] [Compound 8],210 nM,28 nM
[NiS(OH2)2]n [Compound 6],390 nM,45 nM
[CdS(OH2)2] [Compound 9],180 nM,17 nM
[CuS(OH2)2]n [Compound 7],175 nM,24 nM
[ZnS(NH3)2] [Compound 13],205 nM,22 nM
